According to patent publication US6472348B1, “Pyridone derivatives and herbicides” (Kumiai Chemical Industry Co., Ltd., priority 1996, dated 2002):

Columns and labels:
Assay type in all cases: in vivo
Design in all cases: scale not given here
[1] = test system: common lambsquarters (Ch); experiment: Test Example 5: crop plant selectivity by upland field soil treatment (wheat), herbicidal effects; details: 21st day after application
Outline: (§1)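 A greenhouse pot test in which wheat and weeds share sand-filled pots; after the soil application, damage is graded against set standards three weeks later.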

[2] = test system: slender amaranth (Am); experiment: as above; details: 21st day after application
Outline: as §1

[3] = test system: China jute (Ab); experiment: as above; details: 21st day after application
Outline: as §1

[4] = test system: pale smartweed (Po); experiment: as above; details: 21st day after application
Outline: as §1

[5] = test system: green foxtail (Se); experiment: as above; details: 21st day after application
Outline: as §1

[6] = test system: pale smartweed (Po); experiment: Test Example 6: crop plant selectivity by upland field soil treatment (soybean), herbicidal effects; details: 21st day after application
Outline: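 Greenhouse pot test with soil-applied compound after sowing soybean and weeds in sand; effects graded on day 21 after application.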

[7] = test system: slender amaranth (Am); experiment: Test Example 4: crop plant selectivity by upland field soil treatment (cotton), herbicidal effects; details: evaluated 21st day after application
Outline: (§2)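 Upland soil-treatment selectivity test: scoring on day 21 post-application in a greenhouse, rating crop phytotoxicity on cotton and herbicidal effect on co-sown weeds. Seeds were sown in sand-filled pots and covered with soil before treatment.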

[8] = test system: green foxtail (Se); experiment: as above; details: evaluated 21st day after application
Outline: as §2

[9] = test system: common lambsquarters (Ch); experiment: Test Example 9: crop plant selectivity by upland field foliage treatment (wheat), herbicidal effects; details: dose 1.6 g ai/10a, 14th day after treatment
Outline: (§3)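 Read-out: weed control and wheat injury, rated by a defined scoring standard 14 days after foliar application.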

[10] = test system: slender amaranth (Am); experiment: as above; details: dose 1.6 g ai/10a, 14th day after treatment
Outline: as §3

[11] = test system: China jute (Ab); experiment: as above; details: dose 1.6 g ai/10a, 14th day after treatment
Outline: as §3

[12] = test system: pale smartweed (Po); experiment: as above; details: dose 1.6 g ai/10a, 14th day after treatment
Outline: as §3

SMILES | Herbicidal effects Ch ([1]; dose 1.6 g ai/10a) | Herbicidal effects Am ([2]; dose 1.6 g ai/10a) | Herbicidal effects Ab ([3]; dose 1.6 g ai/10a) | Herbicidal effects Po ([4]; dose 1.6 g ai/10a) | Herbicidal effects Se ([5]; dose 1.6 g ai/10a) | Herbicidal effects Po ([6]; dose 1.6 g ai/10a) | Herbicidal effects Am ([7]; dose 1.6 g ai/10 a) | Herbicidal effects Am ([7]; dose 6.3 g ai/10 a) | Herbicidal effects Se ([8]; dose 1.6 g ai/10 a) | Herbicidal effects Se ([8]; dose 6.3 g ai/10 a) | Herbicidal effects Ch ([1]; dose 6.3 g ai/10a) | Herbicidal effects Am ([2]; dose 6.3 g ai/10a) | Herbicidal effects Ab ([3]; dose 6.3 g ai/10a) | Herbicidal effects Po ([4]; dose 6.3 g ai/10a) | Herbicidal effects Se ([5]; dose 6.3 g ai/10a) | Herbicidal effects Ch [9] | Herbicidal effects Am [10] | Herbicidal effects Ab [11] | Herbicidal effects Po [12] | Herbicidal effects Po ([6]; dose 6.3 g ai/10a)
C#CC(C)Oc1cc(-c2cn(C)c(C(F)(F)F)cc2=O)c(F)cc1Cl (racemic) [Compound 6-10] | 5 | 5 | 4 | 5 | 4 | 5 | 5 | 5 | 4 | 5 | – | – | – | – | – | – | – | – | – | –
COc1cc(-c2ccc(C(F)(F)F)n(C)c2=O)c(F)cc1Cl [1-15] | 5 | 5 | 5 | 5 | 5 | 5 | 5 | 5 | 5 | 5 | – | – | – | – | – | – | – | – | – | –
C=CCOc1cc(-c2ccc(C(F)(F)F)n(C)c2=O)c(F)cc1Cl [1-16] | 5 | 5 | 5 | 5 | 5 | 5 | 5 | 5 | 5 | 5 | 5 | 5 | 5 | 5 | 5 | 5 | 5 | 5 | 5 | –
C#CC(C)Oc1cc(-c2ccc(C(F)(F)F)n(C)c2=O)c(F)cc1Cl (centres unmarked) [1-17] | 5 | 5 | 5 | 5 | 5 | 5 | 5 | 5 | 5 | 5 | – | – | – | – | – | – | – | – | – | –
C#CCOc1cc(-c2ccc(C(F)(F)F)n(C)c2=O)c(F)cc1Cl [1-18] | 5 | 5 | 5 | 5 | 5 | 5 | 5 | 5 | 5 | 5 | – | – | – | – | – | – | – | – | – | –
Cn1c(C(F)(F)F)ccc(-c2cc(OCC#N)c(Cl)cc2F)c1=O [1-25] | – | – | – | – | – | – | – | 5 | – | 5 | – | – | – | – | – | 5 | 5 | 5 | 5 | 5
C#CCOc1cc(-c2ccc(C(F)(F)F)n(C)c2=O)c(Cl)cc1Cl [1-30] | 5 | 5 | 5 | 5 | 5 | 5 | 5 | 5 | 5 | 5 | – | – | – | – | – | 5 | 5 | 5 | 5 | –
Cc1cc(-c2ccc(C(F)(F)F)n(C)c2=O)c(F)cc1Cl [1-90] | – | – | – | – | – | 5 | – | 5 | – | 5 | 5 | 5 | 5 | 5 | 5 | – | – | – | – | 5
Cn1c(C(F)(F)F)ccc(-c2cc(Cl)c(Cl)cc2F)c1=O [1-136] | 5 | 5 | 4 | 5 | 5 | 5 | – | 5 | – | 5 | 5 | 5 | 5 | 5 | 5 | – | – | – | – | 5
Cn1c(C(F)(F)F)ccc(-c2cc(OCC(F)(F)F)c(Cl)cc2F)c1=O [1-155] | 5 | 5 | 5 | 5 | 5 | 5 | 5 | 5 | 5 | 5 | 5 | 5 | 5 | 5 | 5 | – | – | – | – | 5
C#CCOc1cc(-c2ccc(C(F)(F)F)n(N)c2=O)c(F)cc1Cl [1-178] | 5 | 5 | 5 | 5 | 5 | – | 5 | 5 | 5 | 5 | – | – | – | – | – | 5 | 5 | 5 | 5 | –
COc1cc(-c2ccc(C(F)(F)F)n(N)c2=O)c(F)cc1Cl [1-179] | – | – | – | – | – | – | – | 5 | – | 5 | 5 | 5 | 5 | 5 | 5 | 5 | 5 | 5 | 5 | –
C=CCN1C(=O)COc2cc(F)c(-c3ccc(C(F)(F)F)n(C)c3=O)cc21 [Compound 2-7] | 4 | 5 | 5 | 5 | 5 | 5 | 5 | 5 | 4 | 5 | – | – | – | – | – | – | – | – | – | 5
C#CCN1C(=O)COc2cc(F)c(-c3cn(C)c(C(F)(F)F)cc3=O)cc21 [Compound 7-1] | – | – | – | – | – | – | – | 5 | – | 5 | – | 5 | 5 | 5 | 5 | 5 | 5 | 5 | 5 | 5
CON=Cc1cc(-c2ccc(C(F)(F)F)n(C)c2=O)c(F)cc1Cl [Compound No. 1-72, 5-(1-methyl-6-trifluoromethyl-2(1H)-pyridon-3-yl)-2-chloro-4-fluorobenzaldehydeoxime-O-methyl ether] | 5 | 5 | 5 | 5 | 5 | 5 | 5 | 5 | 5 | 5 | – | – | – | – | – | – | – | – | – | 5
Cn1c(C(F)(F)F)ccc(-c2cc(C#N)c(Cl)cc2F)c1=O [Compound No. 1-119, 3-(4-chloro-5-cyano-2-fluorophenyl)-1-methyl-6-trifluoromethyl-2(1H)-pyridone] | – | – | – | – | – | – | – | 5 | – | 5 | – | – | – | – | – | 5 | 5 | 4 | 5 | 5
C#CCN1C(=O)COc2cc(F)c(-c3ccc(C(F)(F)F)n(C)c3=O)cc21 [Compound No. 2-1, 3-[7-fluoro-2,3-dihydro-4-(2-propynyl)-1,4-benzoxazin-3-on-6-yl]-1-methyl-6-trifluoromethyl-2(1H)-pyridone] | 5 | 5 | 5 | 5 | 5 | 5 | 5 | – | 5 | – | – | – | – | – | – | – | – | – | – | 5
C#CCn1c(=O)sc2cc(F)c(-c3ccc(C(F)(F)F)n(C)c3=O)cc21 [Compound No. 3-1, 3-[6-fluoro-3-(2-propynyl)-benzothiazolin-2-on-5-yl]-1-methyl-6-trifluoromethyl-2(1H)-pyridone] | – | – | – | – | – | – | 5 | 5 | 5 | 5 | 5 | 5 | 5 | 5 | 5 | – | – | – | – | 5
COCc1cc2c(-c3ccc(C(F)(F)F)n(C)c3=O)c(F)cc(Cl)c2o1 [Compound No. 4-4, 3-(7-chloro-5-fluoro-2-methoxymethylbenzofuran-4-yl)-1-methyl-6-trifluoromethyl-2-(1H)-pyridone] | 5 | 5 | 5 | 5 | 5 | – | 5 | 5 | 5 | 5 | – | – | – | – | – | – | – | – | – | 5
Cn1cc(-c2cc(Oc3ccccc3)c(Cl)cc2F)c(=O)cc1C(F)(F)F [Compound No. 6-19, 5-(4-chloro-2-fluoro-5-phenoxyphenyl)-1-methyl-2-trifluoromethyl-4(1H)-pyridone] | 5 | 5 | 3 | 5 | 5 | 5 | 5 | 5 | 5 | 5 | 5 | 5 | 5 | 5 | 5 | – | – | – | – | 5
Cc1cc2c(-c3cn(C)c(C(F)(F)F)cc3=O)c(F)cc(Cl)c2o1 [Compound No. 9-1, 5-(7-chloro-5-fluoro-2-methylbenzofuran-4-yl)-1-methyl-2-trifluoromethyl-4(1H)-pyridone] | 5 | 5 | 5 | 5 | 5 | – | 5 | 5 | 5 | 5 | 5 | 5 | 5 | 4 | 5 | – | – | – | – | –
